Data from PMC8853664, “Protein visualization and manipulation in Drosophila through the use of epitope tags recognized by nanobodies” (eLife, 2022).

Tested on: REPTOR
Assay: REPTOR localization in adult enterocytes after rapamycin treatment, detected with nanobody-GFP
Format: in vivo, Drosophila
Details: rapamycin 50 µM in food, 15 hr; adult enterocytes co-expressing VHH05-REPTOR-127D01 and Nb127D01-GFP or NbVHH05-GFP; confocal imaging
Description: To address whether NanoTagged POIs can be detected in vivo, we generated UAS-VHH05-REPTOR-127D01 flies. A previous study has shown that in S2 cells, the transcription factor REPTOR is enriched in the cytoplasm under normal conditions but translocates into the nucleus upon rapamycin treatment ([Tiebe et al., 2015]). To test whether the changes in REPTOR localization can be detected using the nanobodies, we co-expressed NanoTagged REPTOR along with Nb127D01-GFP or NbVHH05-GFP specifically in adult enterocytes (ECs). In the absence of a NanoTagged POI, Nb127D01-GFP and NbVHH05-GFP were detected in both the cytoplasm and nuclei (Figure 5G1). In contrast, when co-expressed with NanoTagged REPTOR, the nanobody-GFP signals were enriched in the cytoplasm of ECs under normal food conditions (Figure 5H and J). […] Similar changes were absent from ECs that express Nb127D01-GFP or NbVHH05-GFP alone (Figure 5G1).
For rapamycin treatment, rapamycin (LC Laboratories, R-5000) was dissolved in DMSO and mixed into the media when preparing food vials. The rapamycin dose was 50 µM. […]

Question: How did the REPTOR subcellular localization turn out when `CO[C@H]1C[C@@H]2CC[C@@H](C)[C@@](O)(O2)C(=O)C(=O)N2CCCC[C@H]2C(=O)O[C@H]([C@H](C)C[C@@H]2CC[C@@H](O)[C@H](OC)C2)CC(=O)[C@H](C)/C=C(\C)[C@@H](O)[C@@H](OC)C(=O)[C@H](C)C[C@H](C)/C=C/C=C/C=C/1C` [rapamycin, Rapamycin] was run?
Answer: leads to translocation of REPTOR into the nucleus
